Results reported in patent publication US20240067693A1, “POLYPEPTIDES AND USES THEREOF” (MEDIMMUNE LIMITED, priority 2020, published 2024).
Numbered stars: 1 amine (or outer) side, 2 acyl side, 3 side chain; on linkers, the order of the positions; unused ones are H or OH. Bridge positions count the residues as written; N and C are the ends. Square brackets hold non-standard residues; d marks the D form. Side chains are listed from the residue outwards. Peptide text beside a SMILES is read from it. * marks the point of attachment. C18 diacid = O=C(O)CCCCCCCCCCCCCCCCC(=O)*; γGlu = O=C(O)[C@H](CCC(=O)[*:2])N[*:1]; αMeF = C[C@](N)(Cc1ccccc1)C(=O)O; Dab = NCC[C@H](N)C(=O)O; Aib = CC(C)(N)C(=O)O

Assays:
[1] = target: T1, human amylin receptor (calcitonin receptor co-expressed with receptor activity modifying protein, RAMP3) (hAMYR3) (Homo sapiens, UniProt O60896+P30988); test: cAMP production in 1321N1 cells with stable recombinant expression of human amylin receptor (hAMYR3); assay type: cell-based; settings: for Ratio (selectivity hAMYR vs hCTR, ratio of EC50 values at the two receptors): EC50 hCTR / EC50 hAMYR3; for EC50: cAMP, 1321N1 cells, assay buffer with 0.1% BSA, read-out: EC50 (pM) hAMYR3
T1 construct: expressed in transfected cells
T1 sequence (P30988 25-474): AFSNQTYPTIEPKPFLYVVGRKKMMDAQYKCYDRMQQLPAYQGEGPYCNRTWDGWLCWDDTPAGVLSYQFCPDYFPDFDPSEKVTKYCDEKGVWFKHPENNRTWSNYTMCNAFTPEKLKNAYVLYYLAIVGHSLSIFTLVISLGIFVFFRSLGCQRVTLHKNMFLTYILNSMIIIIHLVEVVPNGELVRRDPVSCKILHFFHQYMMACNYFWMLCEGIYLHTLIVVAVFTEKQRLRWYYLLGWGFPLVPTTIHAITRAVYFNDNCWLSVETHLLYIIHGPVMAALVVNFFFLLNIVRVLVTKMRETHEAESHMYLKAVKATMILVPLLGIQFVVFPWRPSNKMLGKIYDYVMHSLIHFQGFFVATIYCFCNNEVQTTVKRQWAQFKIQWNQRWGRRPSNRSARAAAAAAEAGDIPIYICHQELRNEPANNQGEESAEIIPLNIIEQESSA
T1 sequence (O60896 24-148 partner): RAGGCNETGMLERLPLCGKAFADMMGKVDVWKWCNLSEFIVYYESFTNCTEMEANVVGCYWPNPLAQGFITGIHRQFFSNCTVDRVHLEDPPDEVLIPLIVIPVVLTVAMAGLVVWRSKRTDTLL
Protocol: (§1) The functional activities of lipidated pramlintide analogue peptides, such as cAMP production, were tested in 1321N1 cell line with stable recombinant expression of human calcitonin receptor (hCTR) or human amylin receptor (calcitonin receptor co-expressed with receptor activity modifying protein, RAMP3) (hAMYR3) or HEK cells with stable recombinant expression of rat calcitonin receptor (rat CTR) or rat amylin receptor (calcitonin receptor co-expressed with receptor activity modifying protein, RAMP3) (Rat AMYR3).
(§2) Cryopreserved cell stock was thawed rapidly in a water-bath, suspended in assay buffer (0.1% BSA (Sigma # A3059) in HBSS (Sigma # H8264) with 25 mM HEPES, pH 7.4 and containing 0.5 mM IB MX (Sigma# 17018)) and spun at 240×g for 5 minutes. Cells were re-suspended in assay buffer at a batch-dependent optimized concentration (e.g. hCTR cells at 0.125×10^5 cells/mL, hAMYR3 cells at 0.125×10^5 cells/mL, rat CTR cells at 1x10^5 cells/mL, rat AMYR3 at 2×10^5 cells/mL).
(§3) The test peptide stock was prepared in DMSO and diluted in assay buffer to reach stated concentrations and transferred in duplicates into a 384-black shallow well microtitre assay plate (Corning # 3676). Cells were added to the assay plate, incubated at room temperature for 30 minutes and the cAMP level measured using cAMP dynamic 2 HTRF kit (Cisbio, Cat # 62AM4PEJ), following the two step protocol as per manufacturer's recommendations. The plates were read on an Envision (Perkin Elmer) using excitation wavelength of 320 nm and emission wavelengths of 620nm & 665 nm.
(§4) Data was transformed to % Delta F as described in the manufacturer's guidelines and analyzed as percent activation of maximal amylin or calcitonin effect by 4-parameter logistic fit to determine EC50 values. The selectivity of a peptide to hAMYR vs hCTR is defined as a ratio of EC50 values at the two receptors.

[2] = target: T2, human calcitonin receptor (hCTR) (Homo sapiens, UniProt P30988); test: cAMP production in 1321N1 cells with stable recombinant expression of human calcitonin receptor (hCTR); assay type: cell-based; settings: cAMP, 1321N1 cells, assay buffer with 0.1% BSA; read-out: EC50 (pM) hCTR
T2 construct: expressed in transfected cells
T2 sequence (P30988 25-474): T1 sequence (P30988 25-474)
Protocol: as §1, §2, §3, §4

SMILES	Ratio (selectivity hAMYR vs hCTR, ratio of EC50 values at the two receptors) [1]	EC50 [1] [pM]	EC50 [2] [pM]
CC[C@H](C)[C@H](NC(=O)[C@@H]1CCCN1C(=O)CNC(=O)[C@H](Cc1ccccc1)NC(=O)[C@H](CC(N)=O)NC(=O)[C@H](CCN)NC(=O)[C@H](CO)NC(=O)[C@H](CO)NC(=O)[C@H](Cc1c[nH]cn1)NC(=O)[C@@H](NC(=O)[C@H](CC(C)C)NC(=O)[C@H](Cc1ccccc1)NC(=O)[C@H](CC(N)=O)NC(=O)[C@H](C)NC(=O)[C@H](CC(C)C)NC(=O)[C@H](CCCNC(=N)N)NC(=O)[C@H](CCC(N)=O)NC(=O)[C@@H](NC(=O)[C@H](C)NC(=O)[C@@H]1CSSC[C@H](NC(=O)[C@H](CCCCN)NC(=O)[C@@H](N)CCCCNC(=O)CC[C@H](NC(=O)CCCCCCCCCCCCCCCCC(=O)O)C(=O)O)C(=O)N[C@@H](CC(N)=O)C(=O)N[C@@H]([C@@H](C)O)C(=O)N[C@@H](C)C(=O)N[C@@H]([C@@H](C)O)C(=O)N1)[C@@H](C)O)C(C)C)C(=O)N[C@@H](CC(C)C)C(=O)N1CCC[C@H]1C(=O)N1CCC[C@H]1C(=O)N[C@H](C(=O)N[C@@H](CC(N)=O)C(=O)N[C@H](C(=O)NCC(=O)N[C@@H](CO)C(=O)N[C@@H](CC(N)=O)C(=O)N[C@H](C(=O)N[C@@H](Cc1ccc(O)cc1)C(N)=O)[C@@H](C)O)C(C)C)[C@@H](C)O [Peptide 29, K(γE-C18diacid)K[CNTATC]ATQRLANFLVHSS(Dab)NFGPILPPTNVGSNTY-amide] (H-K([γGlu-C18 diacid])KCNTATCATQRLANFLVHSS[Dab]NFGPILPPTNVGSNTY-NH2; disulfide 3-8; N-terminus assumed)	34	243	8210
CC[C@H](C)[C@H](NC(=O)[C@@H]1CCCN1C(=O)CNC(=O)[C@H](Cc1ccccc1)NC(=O)[C@H](CC(N)=O)NC(=O)[C@H](CCN)NC(=O)[C@H](CO)NC(=O)[C@H](CO)NC(=O)[C@H](Cc1c[nH]cn1)NC(=O)C(C)(C)NC(=O)[C@H](CC(C)C)NC(=O)[C@H](Cc1ccccc1)NC(=O)[C@H](CC(N)=O)NC(=O)[C@H](C)NC(=O)[C@H](CC(C)C)NC(=O)[C@H](CCCNC(=N)N)NC(=O)[C@H](CCC(N)=O)NC(=O)[C@@H](NC(=O)[C@H](C)NC(=O)[C@@H]1CSSC[C@H](NC(=O)[C@H](CCCCN)NC(=O)[C@@H](N)CCCCNC(=O)CC[C@H](NC(=O)CCCCCCCCCCCCCCCCC(=O)O)C(=O)O)C(=O)N[C@@H](CC(N)=O)C(=O)N[C@@H]([C@@H](C)O)C(=O)N[C@@H](C)C(=O)N[C@@H]([C@@H](C)O)C(=O)N1)[C@@H](C)O)C(=O)N[C@@H](CC(C)C)C(=O)N1CCC[C@H]1C(=O)N1CCC[C@H]1C(=O)N[C@H](C(=O)N[C@@H](CCC(=O)O)C(=O)N[C@H](C(=O)NCC(=O)N[C@@H](CO)C(=O)N[C@@H](CC(N)=O)C(=O)N[C@H](C(=O)N[C@@H](Cc1ccc(O)cc1)C(N)=O)[C@@H](C)O)C(C)C)[C@@H](C)O [Peptide 30, K(γE-C18diacid)K[CNTATC]ATQRLANFL(Aib)HSS(Dab)NFGPILPPTEVGSNTY-amide] (H-K([γGlu-C18 diacid])KCNTATCATQRLANFL[Aib]HSS[Dab]NFGPILPPTEVGSNTY-NH2; disulfide 3-8; N-terminus assumed)	12	873	10500
CC[C@H](C)[C@H](NC(=O)C(C)(C)NC(=O)CNC(=O)[C@H](Cc1ccccc1)NC(=O)[C@H](CC(N)=O)NC(=O)[C@H](CCN)NC(=O)[C@H](CO)NC(=O)[C@H](CO)NC(=O)[C@H](Cc1c[nH]cn1)NC(=O)[C@@H](NC(=O)[C@H](CC(C)C)NC(=O)[C@H](Cc1ccccc1)NC(=O)[C@H](CC(N)=O)NC(=O)[C@H](C)NC(=O)[C@H](CC(C)C)NC(=O)[C@H](CCCNC(=N)N)NC(=O)[C@H](CCC(N)=O)NC(=O)[C@@H](NC(=O)[C@H](C)NC(=O)[C@@H]1CSSC[C@H](NC(=O)[C@H](CCCCN)NC(=O)[C@@H](N)CCCCNC(=O)CC[C@H](NC(=O)CCCCCCCCCCCCCCCCC(=O)O)C(=O)O)C(=O)N[C@@H](CC(N)=O)C(=O)N[C@@H]([C@@H](C)O)C(=O)N[C@@H](C)C(=O)N[C@@H]([C@@H](C)O)C(=O)N1)[C@@H](C)O)C(C)C)C(=O)N[C@@H](CC(C)C)C(=O)N1CCC[C@H]1C(=O)N1CCC[C@H]1C(=O)N[C@H](C(=O)N[C@@H](CC(N)=O)C(=O)N[C@H](C(=O)NCC(=O)N[C@@H](CO)C(=O)N[C@@H](CC(N)=O)C(=O)N[C@H](C(=O)N[C@@H](Cc1ccc(O)cc1)C(N)=O)[C@@H](C)O)C(C)C)[C@@H](C)O [Peptide 31, K(γE-C18diacid)K[CNTATC]ATQRLANFLVHSS(Dab)NFG(Aib)ILPPTNVGSNTY-amide] (H-K([γGlu-C18 diacid])KCNTATCATQRLANFLVHSS[Dab]NFG[Aib]ILPPTNVGSNTY-NH2; disulfide 3-8; N-terminus assumed)	4	349	1280
CC[C@H](C)[C@H](NC(=O)[C@@H]1CCCN1C(=O)CNC(=O)[C@](C)(Cc1ccccc1)NC(=O)[C@H](CC(N)=O)NC(=O)[C@H](CC(N)=O)NC(=O)[C@H](CO)NC(=O)[C@H](CO)NC(=O)[C@H](Cc1c[nH]cn1)NC(=O)[C@@H](NC(=O)[C@H](CC(C)C)NC(=O)[C@H](Cc1ccccc1)NC(=O)[C@H](CCN)NC(=O)[C@H](C)NC(=O)[C@H](CC(C)C)NC(=O)[C@H](CCCNC(=N)N)NC(=O)[C@H](CCC(N)=O)NC(=O)[C@@H](NC(=O)[C@H](C)NC(=O)[C@@H]1CSSC[C@H](NC(=O)[C@H](CCCCN)NC(=O)[C@@H](N)CCCCNC(=O)CC[C@H](NC(=O)CCCCCCCCCCCCCCCCC(=O)O)C(=O)O)C(=O)N[C@@H](CC(N)=O)C(=O)N[C@@H]([C@@H](C)O)C(=O)N[C@@H](C)C(=O)N[C@@H]([C@@H](C)O)C(=O)N1)[C@@H](C)O)C(C)C)C(=O)N[C@@H](CC(C)C)C(=O)N1CCC[C@H]1C(=O)N1CCC[C@H]1C(=O)N[C@H](C(=O)N[C@@H](CCC(=O)O)C(=O)N[C@H](C(=O)NCC(=O)N[C@@H](CO)C(=O)N[C@@H](CC(N)=O)C(=O)N[C@H](C(=O)N[C@@H](Cc1ccc(O)cc1)C(N)=O)[C@@H](C)O)C(C)C)[C@@H](C)O [Peptide 32, K(γE-C18diacid)K[CNTATC]ATQRLA(Dab)FLVHSSNN(αMePhe)GPILPPTEVGSNTY-amide] (H-K([γGlu-C18 diacid])KCNTATCATQRLA[Dab]FLVHSSNN[αMeF]GPILPPTEVGSNTY-NH2; disulfide 3-8; N-terminus assumed)	15	742	11100
CC[C@H](C)[C@H](NC(=O)[C@@H]1CCCN1C(=O)CNC(=O)[C@H](Cc1ccccc1)NC(=O)[C@H](CC(N)=O)NC(=O)[C@H](CC(N)=O)NC(=O)[C@H](CO)NC(=O)[C@H](CO)NC(=O)[C@H](Cc1c[nH]cn1)NC(=O)[C@@H](NC(=O)[C@H](CC(C)C)NC(=O)[C@H](Cc1ccccc1)NC(=O)[C@H](CCN)NC(=O)[C@H](C)NC(=O)[C@H](CC(C)C)NC(=O)[C@H](CCCNC(=N)N)NC(=O)[C@H](CCC(N)=O)NC(=O)[C@@H](NC(=O)[C@H](C)NC(=O)[C@@H]1CSSC[C@H](NC(=O)[C@H](CCCCN)NC(=O)[C@@H](N)CCCCNC(=O)CC[C@H](NC(=O)CCCCCCCCCCCCCCCCC(=O)O)C(=O)O)C(=O)N[C@@H](CC(N)=O)C(=O)N[C@@H]([C@@H](C)O)C(=O)N[C@@H](C)C(=O)N[C@@H]([C@@H](C)O)C(=O)N1)[C@@H](C)O)C(C)C)C(=O)N[C@@H](CC(C)C)C(=O)N1CCC[C@H]1C(=O)N1CCC[C@H]1C(=O)N[C@H](C(=O)N[C@@H](CCC(=O)O)C(=O)N[C@H](C(=O)NCC(=O)N[C@@H](CO)C(=O)N[C@@H](CC(N)=O)C(=O)N[C@H](C(=O)N[C@@H](Cc1ccc(O)cc1)C(N)=O)[C@@H](C)O)C(C)C)[C@@H](C)O [Peptide 34] (H-K([γGlu-C18 diacid])KCNTATCATQRLA[Dab]FLVHSSNNFGPILPPTEVGSNTY-NH2; disulfide 3-8; N-terminus assumed)	20	877	17700
